Laboratory results from the NIST ThermoML archive (doi:10.1016/j.jct.2004.07.008).

Assay: xn = mol fraction of the nth substance listed
Conditions: 100 kPa, Liquid

CCNCC [diethylamine] + O
mass density [kg/m3]
Conditions	278.15 K	288.15 K	293.15 K	298.15 K	308.15 K
x1 = 0.0006	999.491	998.664	997.751	996.626	993.562
x1 = 0.0024	997.912	997.039	996.154	994.988	991.942
x1 = 0.0035	996.932	996.037	995.136	993.969	990.903
x1 = 0.0044	996.139	995.23	994.323	993.151	990.065
x1 = 0.0056	995.225	994.285	993.371	992.182	989.066
x1 = 0.0064	994.57	993.602	992.679	991.472	988.353
x1 = 0.0081	993.249	992.212	991.279	990.04	986.873
x1 = 0.0097	992.04	990.934	989.98	988.714	985.476
x1 = 0.0172	987.17	985.63	984.539	983.09	979.496
x1 = 0.0291	980.983	978.376	976.96	975.088	970.666
x1 = 0.04	976.381	972.612	970.596	968.411	962.812
x1 = 0.0799	957.078	949.316	945.543	941.882	936.416
x1 = 0.0962	–	939.288	–	932.747	927.169
x1 = 0.1023	–	935.289	–	928.614	923.171
x1 = 0.1157	–	927.131	–	918.262	–
x1 = 0.1191	933.215	925.183	920.953	916.971	910.193
x1 = 0.1717	905.317	896.85	892.377	888.178	883.177
x1 = 0.229	–	871.09	–	–	–
x1 = 0.2382	876.611	867.217	863.096	858.163	848.844
x1 = 0.2939	859.045	–	842.233	837.568	827.974
x1 = 0.3003	857.537	844.712	839.967	835.41	825.737
x1 = 0.3501	–	829.202	824.477	819.781	810.104
x1 = 0.3558	838.534	–	822.73	817.933	808.149
x1 = 0.3911	–	–	–	809.086	–
x1 = 0.4057	–	814.027	809.021	–	794.354
x1 = 0.4407	815.342	–	–	795.926	–
x1 = 0.4625	810.256	799.75	795.056	789.779	779.967
x1 = 0.4844	805.352	–	–	784.888	–
x1 = 0.5091	799.695	–	–	–	769.213
x1 = 0.523	–	–	781.055	–	766.718
x1 = 0.5287	–	–	–	775.014	–
x1 = 0.6144	779.133	768.288	763.538	759.804	748.753
x1 = 0.6304	775.979	–	760.21	–	745.249
x1 = 0.7017	763.313	–	747.769	742.589	732.049
x1 = 0.7022	–	752.772	–	742.461	732.247
x1 = 0.726	–	–	742.965	–	–
x1 = 0.7549	–	–	738.917	733.676	723.048
x1 = 0.7771	751.837	–	735.541	730.331	719.687
x1 = 0.805	749.039	737.02	731.853	726.558	–
x1 = 0.8523	741.596	729.358	724.287	718.777	708.199
x1 = 0.8755	735.261	–	–	715.631	–
x1 = 0.8822	–	725.559	719.965	714.728	–
x1 = 0.8941	–	–	718.394	713.135	702.403
x1 = 0.9019	732.413	–	–	712.05	–
x1 = 0.931	–	718.71	713.312	708.033	–
x1 = 0.941	726.848	–	712.088	706.818	696.061
x1 = 0.9589	724.66	–	–	704.314	–
x1 = 0.9727	–	–	708.394	703.131	692.387
x1 = 0.979	721.447	–	–	701.729	–
x1 = 1	719.94	709.52	704.59	698.97	688.29
